Laboratory results from patent publication US4243408A, “Herbicidal N-triazolylmethyl-substituted alpha-haloacetanilide” (Chevron Research Company, priority 1978, dated 1981).

Columns and labels:
Type in all cases: in vivo
Wild Oats (Avena fatua) [1] = assay: Pre-Emergent Test, herbicidal effectiveness; details: pre-emergence, 504 h, 0-to-100 scale, read-out: Herbicidal Effectiveness, % Control Pre, O; for pest or weed control at 33 µg/cm2: 33 micrograms per cm^2, 3 weeks; for pest or weed control at 11 µg/cm2: 11 micrograms per cm^2, 3 weeks
Description: (§1) An acetone solution of the test compound was prepared by mixing 750 mg of the compound, 220 mg of a nonionic surfactant and 25 ml of acetone. This solution was added to approximately 125 ml of water containing 156 mg of surfactant.
(§2) Seeds of the test vegetation were planted in a pot of soil and the test solution was sprayed uniformly onto the soil surface at a dose of 33 micrograms/cm^2. The pot was watered and placed in a greenhouse. […] At the end of this period, the herbicidal effectiveness of the compound was rated based on the physiological observations. A 0-to-100 scale was used, 0 representing no phytotoxicity, 100 representing complete kill.

[2] = test system: Crabgrass (Digitaria sanguinalis); assay: Pre-Emergent Test, herbicidal effectiveness; details: pre-emergence, 504 h, 0-to-100 scale, read-out: Herbicidal Effectiveness, % Control Pre, C; for pest or weed control at 33 µg/cm2: 33 micrograms per cm^2, 3 weeks
Description: as §1, §2

Watergrass (Echinochloa) [3] = assay: Pre-Emergent Test, herbicidal effectiveness; details: pre-emergence, 504 h, 0-to-100 scale, read-out: Herbicidal Effectiveness, % Control Pre, W; for pest or weed control at 33 µg/cm2: 33 micrograms per cm^2, 3 weeks; for pest or weed control at 11 µg/cm2: 11 micrograms per cm^2, 3 weeks
Description: as §1, §2

[4] = test system: Lambsquarter (Chenopodium album); assay: Pre-Emergent Test, herbicidal effectiveness; details: pre-emergence, 504 h, 0-to-100 scale, read-out: Herbicidal Effectiveness, % Control Pre, L; for pest or weed control at 33 µg/cm2: 33 micrograms per cm^2, 3 weeks
Description: as §1, §2

[5] = test system: Mustard (Brassica arvensis); assay: Pre-Emergent Test, herbicidal effectiveness; details: pre-emergence, 504 h, 0-to-100 scale; for pest or weed control at 33 µg/cm2: 33 micrograms per cm^2, 3 weeks
Description: as §1, §2

[6] = test system: Pigweed (Amaranthus retroflexus); assay: Pre-Emergent Test, herbicidal effectiveness; details: pre-emergence, 504 h, 0-to-100 scale, read-out: Herbicidal Effectiveness, % Control Pre, P; for pest or weed control at 33 µg/cm2: 33 micrograms per cm^2, 3 weeks
Description: as §1, §2

Wild Oats (Avena fatua) [7] = assay: Post-Emergent Test, herbicidal effectiveness; details: post-emergence, 504 h, 33 micrograms per cm^2, 3 weeks, 0-to-100 scale, read-out: Herbicidal Effectiveness, % Control Post, O
[8] = test system: Crabgrass (Digitaria sanguinalis); assay: Post-Emergent Test, herbicidal effectiveness; details: post-emergence, 504 h, 33 micrograms per cm^2, 3 weeks, 0-to-100 scale, read-out: Herbicidal Effectiveness, % Control Post, C
Watergrass (Echinochloa) [9] = assay: Post-Emergent Test, herbicidal effectiveness; details: post-emergence, 504 h, 33 micrograms per cm^2, 3 weeks, 0-to-100 scale, read-out: Herbicidal Effectiveness, % Control Post, W
[10] = test system: Lambsquarter (Chenopodium album); assay: Post-Emergent Test, herbicidal effectiveness; details: post-emergence, 504 h, 33 micrograms per cm^2, 3 weeks, 0-to-100 scale, read-out: Herbicidal Effectiveness, % Control Post, L
[11] = test system: Mustard (Brassica arvensis); assay: Post-Emergent Test, herbicidal effectiveness; details: post-emergence, 504 h, 33 micrograms per cm^2, 3 weeks, 0-to-100 scale
[12] = test system: Pigweed (Amaranthus retroflexus); assay: Post-Emergent Test, herbicidal effectiveness; details: post-emergence, 504 h, 33 micrograms per cm^2, 3 weeks, 0-to-100 scale, read-out: Herbicidal Effectiveness, % Control Post, P
[13] = 11 micrograms per cm^2, 3 weeks

Row | SMILES | pest or weed control at 33 µg/cm2 (Wild Oats (Avena fatua) [1]) | pest or weed control at 33 µg/cm2 [2] | pest or weed control at 33 µg/cm2 (Watergrass (Echinochloa) [3]) | pest or weed control at 33 µg/cm2 [4] | pest or weed control at 33 µg/cm2 [5] | pest or weed control at 33 µg/cm2 [6] | pest or weed control at 5000 µg/mL, 33 µg/cm2 (Wild Oats (Avena fatua) [7]) | pest or weed control at 5000 µg/mL, 33 µg/cm2 [8] | pest or weed control at 5000 µg/mL, 33 µg/cm2 (Watergrass (Echinochloa) [9]) | pest or weed control at 5000 µg/mL, 33 µg/cm2 [10] | pest or weed control at 5000 µg/mL, 33 µg/cm2 [11] | pest or weed control at 5000 µg/mL, 33 µg/cm2 [12] | pest or weed control at 11 µg/cm2 (Watergrass (Echinochloa) [3]) | pest or weed control at 11 µg/cm2 (Wild Oats (Avena fatua) [1]) | pest or weed control at 11 µg/cm2 [2, 13] | pest or weed control at 11 µg/cm2 [4, 13] | pest or weed control at 11 µg/cm2 [5, 13] | pest or weed control at 11 µg/cm2 [6, 13]
1 | Cc1nnc(CNc2c(C)cccc2C)o1 [Compound 1A, 2-(2,6-dimethylphenylaminomethyl)-5-methyl-1,3,4-oxadiazole] | 0% | 0% | 0% | 0% | 0% | 0% | 0% | 0% | 0% | 0% | 0% | 0% |  |  |  |  |  | 
2 | Cc1nnc(CN(C(=O)CCl)c2c(C)cccc2C)o1 [Compound 1B, N-(5-methyl-1,3,4-oxadiazol-2-ylmethyl)-2,6-dimethyl-alpha-chloroacetanilide] | 90% | 100% | 100% | 50% | 45% | 87% | 0% | 0% | 0% | 0% | 0% | 0% |  |  |  |  |  | 
3 | Cc1nc(CNc2c(C)cccc2C)n[nH]1 [Compound 2A, 3-(2,6-dimethylphenylaminomethyl)-5-methyl-1,2,4-triazole] | 0% | 0% | 0% | 0% | 0% | 0% | 0% | 0% | 0% | 0% | 0% | 0% |  |  |  |  |  | 
4 | Cc1nnc(CN(C(=O)CCl)c2c(C)cccc2C)[nH]1 [Compound 2B, N-(5-methyl-1,2,4-triazol-3-ylmethyl)-2,6-dimethyl-alpha-chloroacetanilide] | 100% | 100% | 100% | 98% | 75% | 88% | 30% | 20% | 75% | 50% | 25% | 32% |  |  |  |  |  | 
5 | Cc1cccc(C)c1NCc1nnc(S)n1C [Compound 3, 3-(2,6-dimethylphenylaminomethyl)-4-methyl-5-mercapto-1,2,4-triazole] | 0% | 0% | 0% | 0% | 0% | 0% | 0% | 0% | 0% | 0% | 0% | 0% |  |  |  |  |  | 
6 | CCc1cccc(C)c1N(Cc1nnc(C)o1)C(=O)CCl [Compound 4] | 93% | 100% | 100% | 10% | 10% | 65% | 50% | 20% | 60% | 0% | 0% | 0% |  |  |  |  |  | 
7 | CCc1cccc(CC)c1NCc1nnc(C)[nH]1 [Compound 5A] | 0% | 0% | 0% | 0% | 0% | 0% | 0% | 0% | 0% | 0% | 0% | 0% |  |  |  |  |  | 
8 | CCc1cccc(CC)c1N(Cc1nnc(C)[nH]1)C(=O)CCl [Compound 5B] |  |  |  |  |  |  |  |  |  |  |  |  | 100% |  |  |  |  | 
9 | CCc1cccc(C)c1NCc1nnc(C)[nH]1 [Compound 6A] | 0% | 0% | 0% | 0% | 0% | 0% | 0% | 0% | 0% | 0% | 0% | 0% |  |  |  |  |  | 
10 | CCc1cccc(C)c1N(Cc1nnc(C)[nH]1)C(=O)CCl [Compound 6B] |  |  |  |  |  |  |  |  |  |  |  |  |  | 100% |  |  |  | 
11 | CCc1nnc(CNc2c(CC)cccc2CC)[nH]1 [Compound 8A] | 0% | 0% | 0% | 0% | 0% | 0% | 0% | 0% | 0% | 0% | 0% | 0% |  |  |  |  |  | 
12 | CCc1nnc(CN(C(=O)CCl)c2c(CC)cccc2CC)[nH]1 [Compound 8B] |  |  |  |  |  |  |  |  |  |  |  |  | 100% | 99% | 100% | 100% | 83% | 90%
13 | Cc1cccc(C)c1NCc1nnc[nH]1 [Compound 9A] | 0% | 0% | 0% | 0% | 0% | 0% | 0% | 0% | 0% | 0% | 0% | 0% |  |  |  |  |  | 
14 | Cc1cccc(C)c1N(Cc1nnc[nH]1)C(=O)CCl [Compound 9B] | 100% | 100% | 100% | 100% | 55% | 100% | 65% | 70% | 75% | 25% | 25% | 0% |  |  |  |  |  | 
